# From publication PMC3374801, “Artemisinin Inhibits Chloroplast Electron Transport Activity: Mode of Action” (PLoS ONE, 2012)
# Entries after “also recorded” stand apart in the source; their conditions may differ.
# How the values were obtained:
# spinach thylakoids = test: In vitro effect of artemisinin on FeCN supported O2 evolution (electron transport) of isolated thylakoids; type: biochemical, spinach (Beta palonga); details: for artemisinin-mediated inhibition of electron transport: 744 µM
# Method: Thylakoids were isolated from spinach and rice leaves following with some modifications. Leaves were homogenized in cold grinding buffer [50 mM tricine-NaOH (pH 7.5), 400 mM sucrose, 5 mM MgCl2 and 5 mM KCl]. The homogenate was filtered through Miracloth and the filtrate was centrifuged at 5000×g for 5 min. The chloroplast pellet was washed in 5 mM tricine-NaOH (pH 7.5) buffer containing, 400 mM sucrose and 2 mM MgCl2 and centrifuged at 300×g for 1 min. The supernatant was re-centrifuged at 5000×g for 5 min. The pellet (thylakoids) was finally taken up in a minimal volume of suspending buffer [20 mM tricine-NaOH (pH 7.5), 100 mM sucrose and 5 mM MgCl2]. Chlorophyll concentration in methanolic extract was measured spectrophotometrically.
# Photosystem II, PSI and whole chain (PSII plus PSI) catalyzed electron transport activities were measured as oxygen (O2) evolution or uptake in a Clarke type O2 electrode assembly (Hansatech) at 22±1°C using site-specific artificial electron acceptors, donors, and inhibitors, [26]. The light was rate-saturating (500 µE m^−2 s^−1). Phosphorylating electron transport was measured with addition of 1 mM ADP and 5 mM K2HPO4 (iP) to basal electron transport components (25 mM hepes-NaOH (pH-7.5), 100 mM sucrose, 5 mM MgCl2 and 20 µg Chl. ml^−1). NH4Cl and GS were used at a final concentration of 5 mM and 10 µM respectively as and when required. The whole chain electron flow was assayed in presence of 2 mM FeCN as terminal electron acceptor of PSI. pBQ and DQ (400 µM) were used to measure PSII catalyzed electron flow. To measure PSI catalyzed electron flow, DCIPH2 (1 mM DCIP plus 2 mM ascorbate) was used as electron donor to cytochrome b6/f region and 1 mM MV as transient electron acceptor. The PSI reaction mixture additionally contained 2 mM sodium azide (catalase inhibitor) and 10 µM DCMU (PSII inhibitor).
# rice leaves [1] = test: Fast Chl. a (O-J-I-P) fluorescence transient in leaves of artemisinin sprayed plants; type: in vivo, Rice (Oryza sativa var. Safari)
# Method: (§1) Twenty one day old rice plants were sprayed with artemisinin twice at a 24 h interval. One mililiter of 74.4 mM artemisinin in 1% (V/V) DMSO, 0.1% (V/V) TWEEN-20 was diluted 100 fold with water and used to treat 40 plants (∼1.86 µmol of artemisinin/plant). Control plants were sprayed with the same solution without artemisinin. The 4th (quaternary) leaf was harvested 20 h after the 2nd spray and used for all experiments. The individual effect of the surfactant and DMSO-plus-surfactant was first evaluated against water control. Since no effect was obtained with these variations, we have routinely used the DMSO plus the surfactant sprayed leaves as control against artemisinin treated leaves and in figures the same has been depicted as DMSO (control). The room temperature Chl. a fluorescence technique was used to study the photosynthetic activity in intact leaf samples. The fast Chl. a transients (O-J-I-P) in millisecond (ms) time span was studied with plant efficiency analyzer (Handy PEA fluorimeter) following Strasser et al., while the relative thylakoid electron transport, membrane energization and carbon fixation activities were evaluated from slow fluorescence transients, obtained using FMS2 instrument (Hansatech) as per the detail outlined in Baker. The readouts from Handy PEA were analyzed using biolyzerhp3 software.
# rice leaves [2] = test: Slow Chl. a fluorescence kinetics in leaves of artemisinin sprayed plants; type: in vivo, Rice (Oryza sativa var. Safari); details: dark adapted 20 min
# Method: as §1
# [3] = system: whole chain (H2O to FeCN) electron flow in thylakoids; test: Whole chain (H2O to FeCN) electron flow in thylakoids isolated from leaves of sprayed plants; type: in vivo, Rice (Oryza sativa var. Safari)
# Method: (§2) Twenty one day old rice plants were sprayed with artemisinin twice at a 24 h interval. One mililiter of 74.4 mM artemisinin in 1% (V/V) DMSO, 0.1% (V/V) TWEEN-20 was diluted 100 fold with water and used to treat 40 plants (∼1.86 µmol of artemisinin/plant). Control plants were sprayed with the same solution without artemisinin. The 4th (quaternary) leaf was harvested 20 h after the 2nd spray and used for all experiments. The individual effect of the surfactant and DMSO-plus-surfactant was first evaluated against water control. […]
# (§3) Thylakoids were isolated from spinach and rice leaves following with some modifications. […] Chlorophyll concentration in methanolic extract was measured spectrophotometrically.
# (§4) Photosystem II, PSI and whole chain (PSII plus PSI) catalyzed electron transport activities were measured as oxygen (O2) evolution or uptake in a Clarke type O2 electrode assembly (Hansatech) at 22±1°C using site-specific artificial electron acceptors, donors, and inhibitors, [26]. […] Phosphorylating electron transport was measured with addition of 1 mM ADP and 5 mM K2HPO4 (iP) to basal electron transport components (25 mM hepes-NaOH (pH-7.5), 100 mM sucrose, 5 mM MgCl2 and 20 µg Chl. ml^−1). […]
# PSII = target: T1, PSII (Oryza sativa subsp. japonica, UniProt P0C434); test: PSII (H2O to pBQ) catalyzed electron flow in thylakoids isolated from leaves of sprayed plants; type: in vivo, Rice (Oryza sativa var. Safari); details: thylakoids of treated rice leaves
# T1 construct: Thylakoids were isolated from spinach and rice leaves; from tissue; host or cells: thylakoid membranes from the 4th leaf of 21-day-old rice plants
# Method: as §2, §3, §4
# PSI = PSI (DCIPH2 to MV) catalyzed electron flow in thylakoids isolated from leaves of sprayed plants; type: in vivo, Rice (Oryza sativa var. Safari); details: thylakoids of treated rice leaves
# Method: as §2, §3, §4
# [4] = system: PQH2 pool (PSII catalyzed electron flow from water to DQ); test: Kinetics of DQ supported electron transport rate in thylakoids from treated leaves; type: in vivo; details: control versus treated thylakoids
# Method: as §2, §3, §4
# Chl. pigment synthesis = test: Chlorophyll quantification in sprayed plants; type: in vivo, Rice (Oryza sativa var. Safari); details: treated versus control leaves
# Method: Twenty one day old rice plants were sprayed with artemisinin twice at a 24 h interval. One mililiter of 74.4 mM artemisinin in 1% (V/V) DMSO, 0.1% (V/V) TWEEN-20 was diluted 100 fold with water and used to treat 40 plants (∼1.86 µmol of artemisinin/plant). Control plants were sprayed with the same solution without artemisinin. The 4th (quaternary) leaf was harvested 20 h after the 2nd spray and used for all experiments. The individual effect of the surfactant and DMSO-plus-surfactant was first evaluated against water control. Since no effect was obtained with these variations, we have routinely used the DMSO plus the surfactant sprayed leaves as control against artemisinin treated leaves and in figures the same has been depicted as DMSO (control). Thylakoids were isolated from spinach and rice leaves following with some modifications. Leaves were homogenized in cold grinding buffer [50 mM tricine-NaOH (pH 7.5), 400 mM sucrose, 5 mM MgCl2 and 5 mM KCl]. The homogenate was filtered through Miracloth and the filtrate was centrifuged at 5000×g for 5 min. […] Chlorophyll concentration in methanolic extract was measured spectrophotometrically. Supplementary file pone.0038942.s002.doc: Figure S2 Chlorophyll quantification in plants sprayed with DMSO and artemisinin. […]
# rice plant = test: Long term effect of artemisinin administration to rice plant; type: in vivo; details: 5 consecutive alternate day sprays
# Method: Supplementary file pone.0038942.s005.doc: Figure S5 Long term effect of artemisinin administration to rice plant. The plants were treated with artemisinin for 5 consecutive alternate day sprays. […] (DOC) Click here for additional data file.
# [5] = system: lettuce and annual wormwood; design: method as in earlier work; details: 33 µM; cited from earlier work
# [6] = system: lettuce, redroot pigweed, pitted morning glory, annual wormwood and common purslane; design: method as in earlier work; details: 33 µM; cited from earlier work
# yeast cells = system: yeast cells; design: method as in PMID 16170412; details: 80 µM; cited from earlier work
structure (smiles),measurement,setting,value
C[C@@H]1CC[C@H]2[C@@H](C)C(=O)O[C@@H]3O[C@@]4(C)CC[C@@H]1[C@]32OO4 [Artemisinin],inhibition of control activity (FeCN supported electron transport / O2 evolution),"spinach thylakoids; 744 µM artemisinin, basal (loosely coupled) thylakoids, relative to DMSO control",65–70%
same,artemisinin-mediated inhibition of electron transport,spinach thylakoids; phosphorylating condition (plus ADP and iP),45–50%
same,artemisinin-mediated inhibition of electron transport,"spinach thylakoids; phosphorylating condition, in presence of NH4Cl",15–20%
same,artemisinin-mediated inhibition of electron transport,"spinach thylakoids; phosphorylating condition, with GS",20–25%
same,effect on electron flow from water to QA,rice leaves [1]; from DCMU (20 µM) sensitivity of the fluorescence induction curves,insensitive
same,effect on O-J-I-P fluorescence transient,rice leaves [1]; leaves of sprayed rice plants,disappearance of the FI – FP transient
same,Rfd (fluorescence decline ratio from 'p' to 't' level),rice leaves [2],0.08±0.006
same,reduction of FeCN supported whole chain electron transport rate as compared to control,[3]; thylakoids of treated rice leaves (~1.86 µmol/plant),80–85%
same,inhibitory affect in loosely coupled (basal) versus chemically uncoupled (NH4Cl or GS) thylakoids,"[3]; thylakoids of treated rice leaves, FeCN as acceptor",persistent to a comparable extent
same,reduction in rate of pBQ supported PSII catalyzed electron transport,PSII,65–70%
same,reduction of PSI catalyzed electron flow from DCIPH2 to MV as compared to control,PSI,10–15%
same,"DQ supported electron transport rate, times higher in the absence of artemisinin",[4],5 times
same,effect on Chl. pigment synthesis (Chl. concentration),Chl. pigment synthesis,no affect on the Chl. pigment synthesis
same,long term effect on plants,rice plant,death of plant; also recorded: complete death of the plants
same,effect on germination,[5],inhibited the germination
same,effect on growth of roots and shoots,[6],inhibited
same,effect on growth of yeast cells,yeast cells,arrests the growth
